# Laboratory results published in patent US11542240B2, “STK19 inhibitors for treatment of cancer” (TRUSTEES OF BOSTON UNIVERSITY, priority 2018, dated 2023).
# Read-outs that look alike come from different tables or passages of the source.
# Key:
# [1] = system: A375 cells; assay: immunoblots of NRAS phosphorylation and NRAS signaling; type: cell-based, human; conditions: A375 (NRASWT, BRAFV600E)
# [2] = system: hTERT/p53DD/CDK4(R24C) melanocytes xenograft; assay: xenograft tumor formation of engineered melanocytes in nude mice; type: in vivo, mouse
# Description: FIGS. 6B-6D. Growth curve, tumor weight, and dissected tumors for the xenograft experiments with indicated cells inoculated subcutaneously into flanks of nude mice treated with IV. Visible tumors were measured every three days. […] (FIGS. 6E-6G) Growth curve, tumor weight, and dissected tumors for the xenograft experiments with SK-MEL-2 cells inoculated subcutaneously into flanks of nude mice treated with IV. Visible tumors were measured every three days. […] (FIGS. 6H-6I) Effects of IV treatment on in vivo proliferation and apoptosis were evaluated by staining of the sections of tumor collected in G for Ki67 and cleaved caspase-3. The sections were counterstained with DAPI. Data are means±SD (n=7). Representative images were shown. Scale bar, 100 μm.
# The inventors also performed immunofluorescence on SK-MEL-2 xenograft tumors to investigate the effects of IV on in vivo proliferation and apoptosis, represented by Ki67 and cleaved caspase-3 staining.
# [3] = target: STK19D89N (Homo sapiens (Human), UniProt P49842, D89N); assay: STK19 kinase assay, D89N mutant; conditions: read-out: IC50 for STK19D89N
# [4] = system: UACC62 cells; assay: cell proliferation rate, 4 days; type: cell-based, human; conditions: UACC62, 4 days
# Description: (§1) In addition, the inventors investigated the growth inhibitory effects of IV in melanoma cells with different NRAS and BRAF status, including A375 and UACC62 (NRASWT, BRAFV600E), and SK-MEL-2 and WM2032 (NRASQ61R, BRAFWT).
# [5] = system: WM2032 cells; assay: cell proliferation rate, 4 days; type: cell-based, human; conditions: WM2032, 4 days
# Description: as §1
# [6] = system: SK-MEL-2 cells; assay: cell proliferation rate, 4 days; type: cell-based, human; conditions: SK-MEL-2, 4 days
# Description: as §1
# [7] = system: A375 cells; assay: cell proliferation rate, 4 days; type: cell-based, human; conditions: A375, 4 days
# Description: as §1
# [8] = tolerability study in C57BL/6J mice (body weight, blood chemistry, H&E histology)
# [9] = system: WM2032 cells; type: cell-based, human
# Description: as §1
# (§2) To further confirm the pharmacological effects of IV derive from STK19 inhibition and not G9a inhibition, the inventors investigated the role of G9a in NRAS signaling activation. G9a was silenced by G9a-specific shRNA or inhibited by a specific inhibitor, A-366, in SK-MEL-2 and WM2032 melanoma cells. […] In summary, ZT-12-037-01 (IV) is a specific STK19-targeted inhibitor to block oncogenic NRAS-driven melanocyte malignant transformation and melanoma growth.
# [10] = system: SK-MEL-2 cells; type: cell-based, human
# Description: as §1, §2
# [11] = system: UACC62 cells; assay: immunoblots of NRAS phosphorylation and NRAS signaling; type: cell-based, human; conditions: UACC62 (NRASWT, BRAFV600E)
# [12] = target: G9a histone lysine methyltransferase (Homo sapiens (Human), UniProt Q96KQ7); assay: in vitro methyltransferase assay, G9a enzyme activity; type: biochemical; conditions: read-out: IC50, inhibitory activity towards G9a histone lysine methyltransferase
# [13] = target: STK19 L139F (Homo sapiens (Human), UniProt P49842, L139F); assay: STK19 kinase assay, L139F mutant; conditions: L139F mutation
# [14] = system: hTERT/p53DD/CDK4(R24C) melanocytes; assay: colony formation assay of NRASQ61R-expressing immortal melanocytes; type: cell-based, human; conditions: 3 μM IV
# [15] = system: UACC62 cells; assay: caspase activity assay (apoptosis), 4 days; type: cell-based, human; conditions: UACC62, 4 days
# [16] = target: panel of 468 diverse kinases (Homo sapiens, UniProt P51812); assay: biochemical; type: binding; conditions: 1000 nM, read-out: Percent Control
# [17] = target: panel of 468 diverse kinases (Homo sapiens, UniProt P27361); assay: biochemical; type: binding; conditions: ERK1; 1000 nM; read-out: Percent Control
# [18] = target: panel of 468 diverse kinases (Homo sapiens, UniProt P09619); assay: biochemical; type: binding; conditions: PDGFRB; 1000 nM; read-out: Percent Control
# [19] = target: panel of 468 diverse kinases (Homo sapiens, UniProt Q9NSY1); assay: biochemical; type: binding; conditions: BIKE; 1000 nM; read-out: Percent Control
# [20] = target: panel of 468 diverse kinases (Homo sapiens, UniProt Q9Y2I7); assay: biochemical; type: binding; conditions: PIKFYVE; 1000 nM; read-out: Percent Control
# [21] = target: panel of 468 diverse kinases (Homo sapiens, UniProt P53350); assay: biochemical; type: binding; conditions: PLK1; 1000 nM; read-out: Percent Control
# [22] = target: panel of 468 diverse kinases (Homo sapiens, UniProt Q15831); assay: biochemical; type: binding; conditions: LKB1; 1000 nM; read-out: Percent Control
# [23] = target: panel of 468 diverse kinases (Homo sapiens, UniProt Q9Y6R4); assay: biochemical; type: binding; conditions: MAP3K4; 1000 nM; read-out: Percent Control
# [24] = target: STK19 (Homo sapiens (Human), UniProt P49842); assay: thermal denaturation curve shift of STK19; conditions: read-out: shift in the melting temperature of STK19
# [25] = blood chemistry in tolerability studies
# STK19, sequence (P49842 other isoform, or with tags, fused parts or gaps): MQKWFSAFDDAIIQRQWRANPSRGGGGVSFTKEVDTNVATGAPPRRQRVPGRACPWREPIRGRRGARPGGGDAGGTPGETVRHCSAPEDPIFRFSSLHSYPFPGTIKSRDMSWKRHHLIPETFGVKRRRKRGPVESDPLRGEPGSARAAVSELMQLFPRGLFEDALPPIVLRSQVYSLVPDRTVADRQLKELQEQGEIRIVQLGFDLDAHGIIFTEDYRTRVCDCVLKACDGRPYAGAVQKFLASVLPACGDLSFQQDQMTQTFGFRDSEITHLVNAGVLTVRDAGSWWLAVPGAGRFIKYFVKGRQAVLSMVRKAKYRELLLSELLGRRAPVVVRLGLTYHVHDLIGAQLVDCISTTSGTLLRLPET
# panel of 468 diverse kinases (Homo sapiens, UniProt Q9Y2I7), sequence (Q9Y2I7 2-2098 limits assumed): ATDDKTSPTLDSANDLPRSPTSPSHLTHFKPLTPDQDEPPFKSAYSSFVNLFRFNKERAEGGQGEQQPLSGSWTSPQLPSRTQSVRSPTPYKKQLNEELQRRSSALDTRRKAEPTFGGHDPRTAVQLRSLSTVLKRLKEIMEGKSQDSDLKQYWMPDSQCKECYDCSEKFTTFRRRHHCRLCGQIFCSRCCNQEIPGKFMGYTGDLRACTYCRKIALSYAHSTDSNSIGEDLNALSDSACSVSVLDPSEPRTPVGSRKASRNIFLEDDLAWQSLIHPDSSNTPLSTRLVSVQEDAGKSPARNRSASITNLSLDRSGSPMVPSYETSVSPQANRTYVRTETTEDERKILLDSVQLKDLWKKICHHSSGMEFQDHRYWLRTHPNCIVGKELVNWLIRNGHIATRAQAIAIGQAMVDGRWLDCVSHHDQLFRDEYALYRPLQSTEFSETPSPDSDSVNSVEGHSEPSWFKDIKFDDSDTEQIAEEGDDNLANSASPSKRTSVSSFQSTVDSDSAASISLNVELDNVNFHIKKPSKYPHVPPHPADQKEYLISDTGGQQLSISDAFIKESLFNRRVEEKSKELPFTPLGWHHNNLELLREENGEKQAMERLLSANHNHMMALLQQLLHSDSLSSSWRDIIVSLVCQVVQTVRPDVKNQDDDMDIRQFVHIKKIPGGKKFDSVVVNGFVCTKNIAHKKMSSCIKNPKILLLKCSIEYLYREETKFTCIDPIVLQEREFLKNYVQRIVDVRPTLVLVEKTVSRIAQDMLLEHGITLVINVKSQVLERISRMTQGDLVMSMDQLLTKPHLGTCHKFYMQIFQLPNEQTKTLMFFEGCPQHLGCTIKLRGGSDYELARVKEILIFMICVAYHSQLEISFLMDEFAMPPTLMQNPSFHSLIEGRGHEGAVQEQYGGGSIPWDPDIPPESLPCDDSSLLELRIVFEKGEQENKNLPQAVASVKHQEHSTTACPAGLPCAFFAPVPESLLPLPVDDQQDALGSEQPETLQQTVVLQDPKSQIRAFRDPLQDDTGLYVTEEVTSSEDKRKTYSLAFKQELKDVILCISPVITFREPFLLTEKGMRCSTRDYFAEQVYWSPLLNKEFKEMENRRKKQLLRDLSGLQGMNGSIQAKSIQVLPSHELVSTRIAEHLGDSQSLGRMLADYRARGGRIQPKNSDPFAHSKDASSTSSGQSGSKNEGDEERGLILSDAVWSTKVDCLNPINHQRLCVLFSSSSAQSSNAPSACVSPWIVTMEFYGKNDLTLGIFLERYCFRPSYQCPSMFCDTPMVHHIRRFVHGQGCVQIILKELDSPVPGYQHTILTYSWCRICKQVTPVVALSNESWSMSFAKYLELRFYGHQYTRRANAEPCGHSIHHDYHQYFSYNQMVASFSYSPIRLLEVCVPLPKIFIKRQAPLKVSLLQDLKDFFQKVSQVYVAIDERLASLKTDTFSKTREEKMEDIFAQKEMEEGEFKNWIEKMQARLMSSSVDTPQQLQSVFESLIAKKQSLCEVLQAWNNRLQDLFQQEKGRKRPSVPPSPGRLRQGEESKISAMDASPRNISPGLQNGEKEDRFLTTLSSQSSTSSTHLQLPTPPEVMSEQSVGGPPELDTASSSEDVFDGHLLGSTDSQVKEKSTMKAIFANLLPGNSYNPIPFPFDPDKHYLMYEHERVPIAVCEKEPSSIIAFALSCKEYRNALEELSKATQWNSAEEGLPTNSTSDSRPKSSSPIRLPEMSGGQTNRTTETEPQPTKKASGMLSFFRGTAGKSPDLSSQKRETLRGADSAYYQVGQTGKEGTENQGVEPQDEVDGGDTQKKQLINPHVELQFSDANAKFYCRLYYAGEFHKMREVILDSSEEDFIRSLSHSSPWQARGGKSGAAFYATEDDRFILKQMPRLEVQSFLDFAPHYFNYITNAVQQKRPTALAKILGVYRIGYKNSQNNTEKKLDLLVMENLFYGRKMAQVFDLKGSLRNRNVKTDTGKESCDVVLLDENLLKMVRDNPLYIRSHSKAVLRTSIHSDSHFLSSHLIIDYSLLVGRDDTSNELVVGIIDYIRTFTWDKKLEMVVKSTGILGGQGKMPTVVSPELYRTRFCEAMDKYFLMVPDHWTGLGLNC
# STK19 L139F, sequence (P49842 other isoform, or with tags, fused parts or gaps L139F): as the sequence (P49842 other isoform, or with tags, fused parts or gaps) above, with L139F counted along it
# panel of 468 diverse kinases (Homo sapiens, UniProt P09619), sequence (P09619 33-1106 limits assumed): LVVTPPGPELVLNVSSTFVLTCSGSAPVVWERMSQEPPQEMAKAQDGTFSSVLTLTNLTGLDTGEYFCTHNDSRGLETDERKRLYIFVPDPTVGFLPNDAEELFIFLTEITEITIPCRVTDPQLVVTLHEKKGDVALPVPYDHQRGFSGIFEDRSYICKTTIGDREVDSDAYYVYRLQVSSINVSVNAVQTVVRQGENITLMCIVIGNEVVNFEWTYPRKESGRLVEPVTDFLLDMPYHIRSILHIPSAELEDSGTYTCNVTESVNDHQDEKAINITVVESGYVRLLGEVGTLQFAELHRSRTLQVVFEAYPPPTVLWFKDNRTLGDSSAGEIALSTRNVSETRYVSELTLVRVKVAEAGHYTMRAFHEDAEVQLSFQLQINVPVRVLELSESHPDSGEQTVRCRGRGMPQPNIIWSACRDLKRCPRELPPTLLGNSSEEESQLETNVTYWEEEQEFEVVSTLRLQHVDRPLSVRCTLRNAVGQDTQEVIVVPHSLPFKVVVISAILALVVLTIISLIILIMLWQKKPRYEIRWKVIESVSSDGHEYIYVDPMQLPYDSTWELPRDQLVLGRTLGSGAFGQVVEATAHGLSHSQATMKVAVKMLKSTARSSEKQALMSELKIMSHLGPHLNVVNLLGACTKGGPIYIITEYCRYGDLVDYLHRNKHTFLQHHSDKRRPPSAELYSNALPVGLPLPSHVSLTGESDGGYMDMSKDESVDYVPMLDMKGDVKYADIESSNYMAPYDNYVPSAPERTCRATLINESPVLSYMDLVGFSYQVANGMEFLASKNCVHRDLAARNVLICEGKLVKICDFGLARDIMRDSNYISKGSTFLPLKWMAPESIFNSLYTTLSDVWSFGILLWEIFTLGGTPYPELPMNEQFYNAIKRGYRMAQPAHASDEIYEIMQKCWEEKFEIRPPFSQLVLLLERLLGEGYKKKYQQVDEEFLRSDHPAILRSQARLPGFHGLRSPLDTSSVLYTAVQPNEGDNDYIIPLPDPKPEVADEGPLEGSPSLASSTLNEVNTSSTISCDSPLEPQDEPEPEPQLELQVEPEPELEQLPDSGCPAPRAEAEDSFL
# STK19D89N, sequence (P49842 other isoform, or with tags, fused parts or gaps D89N): as the sequence (P49842 other isoform, or with tags, fused parts or gaps) above, with D89N counted along it
# panel of 468 diverse kinases (Homo sapiens, UniProt P27361), sequence (P27361 2-379 limits assumed): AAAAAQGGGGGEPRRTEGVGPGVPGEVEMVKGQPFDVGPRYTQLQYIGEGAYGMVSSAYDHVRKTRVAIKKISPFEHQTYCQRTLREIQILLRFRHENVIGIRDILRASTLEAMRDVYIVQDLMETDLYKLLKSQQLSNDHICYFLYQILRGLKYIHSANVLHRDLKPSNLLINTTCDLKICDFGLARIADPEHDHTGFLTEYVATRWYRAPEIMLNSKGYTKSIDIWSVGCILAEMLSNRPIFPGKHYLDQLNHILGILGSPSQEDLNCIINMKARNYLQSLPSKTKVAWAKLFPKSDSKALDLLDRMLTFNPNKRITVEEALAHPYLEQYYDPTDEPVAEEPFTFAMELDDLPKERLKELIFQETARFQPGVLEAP
# panel of 468 diverse kinases (Homo sapiens, UniProt P53350), sequence (P53350 2-603 limits assumed): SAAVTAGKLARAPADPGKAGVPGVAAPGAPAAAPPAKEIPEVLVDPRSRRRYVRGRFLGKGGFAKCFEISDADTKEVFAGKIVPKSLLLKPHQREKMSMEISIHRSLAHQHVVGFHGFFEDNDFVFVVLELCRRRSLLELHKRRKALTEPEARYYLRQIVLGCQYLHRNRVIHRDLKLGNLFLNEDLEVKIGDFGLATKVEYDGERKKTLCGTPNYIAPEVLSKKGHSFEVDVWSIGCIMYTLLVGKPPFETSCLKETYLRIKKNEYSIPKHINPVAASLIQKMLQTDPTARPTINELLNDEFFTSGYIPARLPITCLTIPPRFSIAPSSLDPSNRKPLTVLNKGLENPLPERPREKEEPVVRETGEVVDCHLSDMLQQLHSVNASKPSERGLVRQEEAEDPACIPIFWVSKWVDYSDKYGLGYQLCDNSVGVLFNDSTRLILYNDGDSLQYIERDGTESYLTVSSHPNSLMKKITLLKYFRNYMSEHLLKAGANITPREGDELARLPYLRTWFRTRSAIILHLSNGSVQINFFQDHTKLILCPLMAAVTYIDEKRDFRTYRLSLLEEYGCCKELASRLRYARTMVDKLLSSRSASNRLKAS
smiles,measurement,setting,value
COc1cc2nc(NC3CC3)nc(NC3CCN(C(C)C)CC3)c2cc1OC [Formula IV],"NRAS signaling, including MEK-ERK and PI3K pathways",[1],much less effective
same,mutant NRAS/STK19-driven melanocyte tumor formation,[2],significantly inhibited
same,IC50,[3],27.9 nM
same,cell growth,[4],reduced impact
same,cell growth,[5],effectively inhibited
same,cell growth,[6],effectively inhibited
same,cell growth,[7],reduced impact
same,serum transaminase levels,[8]; C57BL/6J mice,did not affect
same,mouse weight,"[8]; C57BL/6J mice, 25 mg/kg BID for 15 days",did not affect
same,histology of mouse tissues,"[8]; C57BL/6J mice, 25 mg/kg BID for 15 days, H&E",did not affect
same,Alanine aminotransferase (ALT),[8]; [25],27.6 ± 5.6 U/L
same,Albumin (ALB),[8]; [25],28.3 ± 2.7 g/L
same,Alkaline phosphatase (ALP),[8]; [25],3.9 ± 1.7 U/L
same,Aspartate aminotransferase (AST),[8]; [25],54.4 ± 9.4 U/L
same,Creatinine (CRE),[8]; [25],17.7 ± 4.2 µmol/L
same,Lactic dehydrogenase (LDH),[8]; [25],247.3 ± 41.0 U/L
same,Phosphorus (P),[8]; [25],1.67 ± 0.39
same,Total bilirubin (T-Bil),[8]; [25],2.68 ± 0.44 µmol/L
same,Total protein (TP),[8]; [25],50.9 ± 2.5 g/L
same,"NRAS signaling, including MEK-ERK and PI3K pathways",[9]; WM2032 (NRASQ61R),effectively inhibited
same,NRAS phosphorylation and activity,"[9]; WM2032, IV 100 nM and 300 nM",effectively decreased
same,H3K9 methylation,"[9]; WM2032, IV up to 300 nM",no obvious effects
same,"NRAS signaling, including MEK-ERK and PI3K pathways",[10]; SK-MEL-2 (NRASQ61R),effectively inhibited
same,NRAS phosphorylation and activity,"[10]; SK-MEL-2, IV 100 nM and 300 nM",effectively decreased
same,H3K9 methylation,"[10]; SK-MEL-2, IV up to 300 nM",no obvious effects
same,IV-mediated inhibition of oncogenic NRAS signaling after introduction of IV-resistant STK19 V134Y or L139F,[10]; SK-MEL-2 cells,rescued
same,"NRAS signaling, including MEK-ERK and PI3K pathways",[11],much less effective
same,IC50,[12],467 nM
same,inhibitory potential of IV for STK19 L139F,[13],remarkably compromised
same,mutant NRAS/STK19-driven melanocyte colony formation,[14],significantly inhibited
same,apoptosis,[15],reduced impact
same,remaining activity at 1 µM,[16]; RSK2(Kin.Dom.1-N-terminal),67%
same,remaining activity at 1 µM,[16]; RSK2(Kin.Dom.2-C-terminal),53%
same,remaining activity at 1 µM,[17],98%
same,remaining activity at 1 µM,[18],93%
same,remaining activity at 1 µM,[19],100%
same,remaining activity at 1 µM,[20],96%
same,remaining activity at 1 µM,[21],70%
same,remaining activity at 1 µM,[22],97%
same,remaining activity at 1 µM,[23],100%
same,ΔTm at 100 µM,[24],6.8 °C
